Experimental data published in patent publication US20200138921A1, “METHODS OF PREVENTING AND TREATING DISEASES CHARACTERIZED BY SYNAPTIC DYSFUNCTION AND NEURODEGENERATION INCLUDING ALZHEIMER'S DISEASE” (The Trustees of Columbia University in the City of New York, priority 2017, published 2020).

Legend:
NMDAR1 = test: Western blot of NMDAR1 in hippocampal neurons; assay type: cell-based, rat; settings: neurons pretreated with 300 nM TOP, oAβ for 24 hours
Method: Whole frozen mouse hippocampi, human brain specimens, and cultured cells were homogenized in RIPA buffer (ThermoFisher) supplemented with protease and phosphatase inhibitor cocktail (ThermoFisher), using a Teflon dounce homogenizer and centrifuged at 14,000 rpm for 10 minutes at 4° C. Supernatants were collected, normalized by BCA assay (ThermoFisher), and prepared for loading using sample buffer (SB) 4× (ThermoFisher) and dithiothreitol (DTT) 10× (ThermoFisher).
To further test whether increasing Ube3A could rescue the effects of oAβ, cultured primary hippocampal neurons (14 DIV) were pretreated with 300 nM of TOP or control PBS. The neurons were then treated with oAβ for 24 hours, and whole cell lysates prepared for Western blot analysis, or fixed for microscopy.
Cells were also assessed for localization of PSD95 and NMDAR1, markers of postsynaptic terminals. Cells treated with TOP had increased levels of PSD95 and NMDAR1 (FIGS. 11B and 11C).

amyloid plaques = test: Amyloid plaque histology (6E10) in J20 mice; assay type: in vivo; settings: TOP treated J20 mice at 12.5 months of age vs J20 mice treated with PBS
Description: Immunolabeling was done on 30 μm brain sections from the J20 TOP treated mice and PBS treated wild-type and J20 mice. Staining was done using the anti-Aβ antibody 6E10 (Covance) and GFAP (Cell Signaling). Plaque load and astrocytosis were quantified using ImageJ. Total plaque area was expressed as a percentage of the total hippocampal area.

wild-type mice = test: Dendritic spine density in hippocampus of wild-type mice; assay type: in vivo; settings: single TOP injection 275 μg
Method: (§1) The protocol for diolistic labeling of neurons was adapted from Gan et al. 2000 and Gan et al. 2009. Briefly, 100 mg of tungsten particles (1.1 μm diameter; Bio-Rad) were thoroughly precipitated with 5.0 mg of lipophilic dye (DiI; ThermoFisher) and dissolved in 100 μl of methylene chloride. Dye-coated particles were shot 2-3 times into the cells using the Helios gene gun system (Bio-Rad) and left in 0.1 M PBS overnight to allow dye diffusion along neuronal processes. Cells were post-fixed with 4% paraformaldehyde (Pierce) for 1 hour to preserve staining, then mounted onto glass slides using Gel Mount (Biomeda) and stored at 4° C. in the dark.
(§2) Labeled neurons were imaged using the Laser Scanning Microscope (LSM) 510 Meta confocal microscope (Zeiss), equipped with 40×1.3 NA and 100×1.4 NA oil-immersion objectives. The NIH Image software program ImageJ was used the quantify diolistic-labeled cultured neurons. An average of 12 compressed images (20 μm thick) consisting of pyramidal neurons were quantified for each treatment. Spines were counted with NeuronStudio software in a blinded manner and spine density was represented in number of spine per μm dendritic length. Statistical analysis was performed using the statistics package GraphPad Prism.
Controls were wild type mice injected with PBS.

J20 mice [1] = test: Long-term potentiation recordings, hippocampal slices of J20 mice; assay type: in vivo; settings: single TOP injection 275 μg, vs PBS treated J20 mice
Method: Long-term potentiation (LTP) recordings were performed by positioning glass electrodes filled with artificial cerebrospinal fluid (ACSF) in the CA1 stratum radiatum to record Field Excitatory Post-Synaptic Potentials (fEPSPs) evoked by local stimulation (0.1 ms) of Schaffer collateral fibers using a bipolar concentric electrode placed laterally to the recoding electrode (approximately 150 μm). Following a steady baseline of 15 minutes, potentiation was induced with three theta-burst stimulations (TBS; 15 second interval), each one involving a single train of 10 bursts at 5 Hz, where each burst was composed of four pulses at 100 Hz (strong stimulation). The fEPSP slopes following tetanic stimulation were normalized to the average of the slopes of the fEPSPs acquired during the baseline.
(§3) Controls were wild-type mice and J20 mice injected with PBS.

J20 mice [2] = test: Dendritic spine density in hippocampus of J20 mice; assay type: in vivo; settings: single TOP injection 275 μg
Method: as §1, §2, §3

[3] = usual marketed dosages, daily for five days or weekly; cited from earlier work
Ube3A [4] = test: Ube3A protein degradation in B35 cells (cycloheximide chase); assay type: cell-based, rat; settings: CHX and oAβ for 4, 8 and 16 hours
Method: FIG. 5A is a graph showing the quantification of Western blots of the levels of Ube3A and GAPDH (as house-keeping protein) of B35 cells treated with cycloheximide (CHX) or CHX and oAβ for 4, 8 and 16 hours. […] Graphs represent mean values and standard deviation. Significance determined by one-way ANOVA followed by Tukey Post Hoc multiple comparisons.

Lfc = test: Levels or activities of Lfc in hippocampal neurons; assay type: cell-based, rat; settings: hippocampal neurons treated with oAβ (results not shown)
Ube3A [5] = test: Immunoprecipitation of HA-Ube3A and phospho-tyrosine immunoblot in B35 cells; assay type: cell-based, rat; settings: B35 cells overexpressing HA-tagged Ube3A, as early as 1 hour
Method: Hippocampal neuron cultures from both male and female rat embryos (E17-18) were prepared following a slightly modified version of the method of Brewer et al. 1996. Hippocampal neurons were kept in culture at 37° C. with 5% CO2 in Neurobasal medium (ThermoFisher) with B27 (ThermoFisher) supplement and Glutamax (ThermoFisher) and plated at a density of 2.5×10^5 cell/ml on dishes coated with poly-D-lysine (ThermoFisher). For the experiments, neurons were used after 14-21 days in vitro (DIV). Rat neuroblastoma B35 cells were cultured and maintained in DMEM (ThermoFisher) supplemented with 10% fetal bovine serum (FBS; Invitrogen) and Glutamax (ThermoFisher).
Cells were collected and homogenized with IP lysis buffer (ThermoFisher) supplemented with Halt protease and phosphatase inhibitor (ThermoFisher). Cell extracts were incubated overnight at 4° C. with 1.0 μg HA antibody (Cell Signaling) or mouse IgG (Cell Signaling) as a negative control Immunocomplexes were incubated with magnetic beads covalently coated with protein G (Invitrogen) on a rotator for 2 hours, at 4° C. The beads were then pelleted with a magnet and washed 3 times with 1× cell lysis buffer (Cell Signaling) supplemented with complete mini protease inhibitor mixture (Roche). The immunocomplexes were resuspended in cell lysis buffer, LDS-sample buffer (Invitrogen), […] dithiothreitol (DTT), and analyzed by Western blotting. […]

Row | Compound | levels of NMDAR1 (NMDAR1) | accumulation of amyloid plaques (amyloid plaques) | dendritic spine density (wild-type mice) | LTP in hippocampal slices (J20 mice [1]) | dendritic spine density (J20 mice [2]) | hematologic toxicity [3] | nonhematologic toxicity [3] | degradation rate of the Ube3A protein (Ube3A [4]) | levels or activities of Lfc (Lfc) | phospho-tyrosinated Ube3A (pTyr-Ube3A) (Ube3A [5])
1 | CC[C@@]1(O)C(=O)OCc2c1cc1n(c2=O)Cc2cc3c(CN(C)C)c(O)ccc3nc2-1 [TOP, topotecan] | increased | approximately equal accumulation | significant increase | Enhancement | significant increase | reversible manageable | mild | – | – | –
2 | oAβ: synthetic soluble oligomeric Aβ1-42 | – | – | – | – | – | – | – | significantly increased | no observation of any differences | significant increase
